pEC50: −log10 of the molar value.
Legend:
human MC4R = human MC4R (Homo sapiens, UniProt P32245); experiment: human MC4R agonist activity; type: cell-based
Human MC1R = target: T1, Human MC1R (Homo sapiens, UniProt Q01726); experiment: MCR agonist measurement (cAMP measurement), human MC1R agonist activity in human melanoma cell line HBL; type: cell-based; conditions: HBL cells; for pEC50: 37° C. for 30 minutes, intracellular cAMP by fluorescence method; for Human MC1R IA %: Intrinsic Activity, vehicle cAMP = 0%, αMSH at 10^-6 M = 100%
T1 construct: endogenous in cells; host or cells: human melanoma cell line HBL
T1 sequence (Q01726 whole entry): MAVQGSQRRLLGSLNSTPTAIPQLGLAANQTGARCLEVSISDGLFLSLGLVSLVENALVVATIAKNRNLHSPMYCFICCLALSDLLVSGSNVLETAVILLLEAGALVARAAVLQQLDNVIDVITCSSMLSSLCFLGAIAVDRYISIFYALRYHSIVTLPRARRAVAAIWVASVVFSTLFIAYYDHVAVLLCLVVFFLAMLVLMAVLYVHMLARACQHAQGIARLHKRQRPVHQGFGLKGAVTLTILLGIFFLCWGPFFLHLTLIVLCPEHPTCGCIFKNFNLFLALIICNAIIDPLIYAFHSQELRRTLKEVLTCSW

Chain of human MC4R (P32245 whole entry): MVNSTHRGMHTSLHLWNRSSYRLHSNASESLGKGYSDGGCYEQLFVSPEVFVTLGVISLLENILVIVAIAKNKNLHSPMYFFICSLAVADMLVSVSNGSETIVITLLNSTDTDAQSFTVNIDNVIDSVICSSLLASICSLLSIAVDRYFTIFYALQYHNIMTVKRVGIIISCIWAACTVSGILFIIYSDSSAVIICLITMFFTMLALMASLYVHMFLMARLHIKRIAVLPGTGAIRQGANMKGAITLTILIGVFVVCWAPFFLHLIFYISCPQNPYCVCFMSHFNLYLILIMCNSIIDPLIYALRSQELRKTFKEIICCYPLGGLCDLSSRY

SMILES | pEC50 (human MC4R) | pEC50 (Human MC1R) | Human MC1R IA % (Human MC1R) [%]
COC[C@@H]1C[C@@H](c2ccc(F)cc2N2CCC(C(=O)O)CC2)CN1C(=O)[C@]1(F)CN([C@H]2CC[C@H](OC)CC2)C[C@H]1c1ccc(OC)cc1.Cl.Cl [Example 147, 1-{5-fluoro-2-[(3S,5S)-1-{[(3R,4R)-3-fluoro-1-(trans-4-methoxycyclohexyl)-4-(4-methoxyphenyl)pyrrolidin-3-yl]carbonyl}-5-(methoxymethyl)pyrrolidin-3-yl]phenyl}piperidine-4-carboxylic acid dihydrochloride] | 6.47 | 8.77 | 102
COc1ccc([C@@H]2CN(C(C)(C)C)C[C@@]2(F)C(=O)N2CCC(c3ccc(C(F)(F)F)cc3OCCCC(=O)NS(=O)(=O)N(C)C)CC2)cc1.Cl [Example 272, 4-[2-(1-{[(3R,4R)-1-tert-butyl-3-fluoro-4-(4-methoxyphenyl)pyrrolidin-3-yl]carbonyl}piperidin-4-yl)-5-(trifluoromethyl)phenoxy]-N-(dimethylsulfamoyl)butanamide hydrochloride] |  | 7.74 | 91
COc1ccc([C@@H]2CN(C3CCCC3)C[C@@]2(F)C(=O)N2CCCC(c3ccc(C(F)(F)F)cc3N3CCC(C(=O)O)CC3)C2)cc1 (single isomer, unassigned) [Example 292] |  | 6.66 | 25
COC[C@H]1CN(C(=O)[C@]2(OC)CN(C3CCCC3)C[C@H]2c2ccc(OC)cc2)C[C@@H]1c1ccc(C(F)(F)F)cc1N1CCC(C(=O)O)CC1 [Example 125] |  | 7.62 | 74
COc1ccc([C@@H]2CN(C(C)(C)C)C[C@@]2(F)C(=O)N2CCC(c3ccc(C(F)(F)F)cc3N3C[C@@H]4[C@H](C3)[C@H]4C(=O)O)CC2)cc1 [Example 94] |  | 7.31 | 83
COc1ccc([C@@H]2CN(C3CCN(C(CF)CF)CC3)C[C@@]2(F)C(=O)N2CCC(c3ccc(C(F)(F)F)cc3N3CCC(C(=O)O)CC3)CC2)cc1 [Example 193] |  | 7.77 | 103
COc1ccc([C@@H]2CN(CCCC(=O)N(C)C)C[C@@]2(F)C(=O)N2CCC(c3ccc(C(F)(F)F)cc3N3CCC(C(=O)O)CC3)CC2)cc1 [Example 304] |  | 8.06 | 89
COC[C@@H]1C[C@@H](c2ccc(C(F)(F)F)cc2N2CCC(C(=O)O)CC2)CN1C(=O)[C@]1(F)CN(c2ccnc(C)c2)C[C@H]1c1ccc(OC)cc1 [Example 68] |  | 9.03 | 111
COc1ccc([C@@H]2CN(C(C)(C)C)C[C@@]2(F)C(=O)N2CCC(c3ccc(C(F)(F)F)cc3N3CCC(C(N)=O)CC3)CC2)cc1 [Example 232] |  | 8.00 | 95
COc1ccc([C@@H]2CN(C(C)(C)C)C[C@@]2(F)C(=O)N2CCC(c3ccc(C(F)(F)F)cc3N3CCC(N(C)C)CC3)CC2)cc1 [Example 205] |  | 7.42 | 67
COc1ccc([C@@H]2CN(C3CCCC3)C[C@@]2(F)C(=O)N2C[C@H](c3ccc(C(F)(F)F)cc3N3CCC(C(=O)O)CC3)C[C@H]2CC#N)cc1 [Example 105] |  |  | 86
COc1ccc([C@@H]2CN(C(C)(C)C)C[C@@]2(F)C(=O)N2CCC(c3ccc(C(F)(F)F)cc3N3CCNCC3)CC2)cc1 [Example 281, [(3R,4R)-1-tert-butyl-3-fluoro-4-(4-methoxyphenyl)pyrrolidin-3-yl]{4-[2-(piperazin-1-yl)-4-(trifluoromethyl)phenyl]piperidin-1-yl}methanone] |  | 7.72 | 72

Reference: patent US9981960B2, “Pyrrolidine compound and application as melanocortin receptor agonist” (MITSUBISHI TANABE PHARMA CORPORATION, priority 2014, dated 2018)
